# Measurements from ChEMBL document CHEMBL1130769, “Use of the 1,2,5-thiadiazolidin-3-one 1,1 dioxide and isothiazolidin-3-one 1,1 dioxide scaffolds in the design of potent inhibitors of serine proteinases” (Bioorg Med Chem Lett, 1998).
# Columns and labels:
# [1] = target: T1, Neutrophil elastase (Homo sapiens) (UniProt P08246); assay: Compound was evaluated for inhibitory activity against human leukocyte elastase
# T1 sequence (whole entry): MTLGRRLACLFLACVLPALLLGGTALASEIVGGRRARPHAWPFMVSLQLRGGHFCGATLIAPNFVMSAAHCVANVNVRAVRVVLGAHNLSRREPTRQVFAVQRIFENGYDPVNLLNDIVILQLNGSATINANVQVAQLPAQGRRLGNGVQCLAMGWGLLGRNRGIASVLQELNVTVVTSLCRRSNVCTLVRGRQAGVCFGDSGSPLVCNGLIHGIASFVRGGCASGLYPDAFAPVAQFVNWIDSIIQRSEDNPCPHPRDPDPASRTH
# [2] = target: T2, Cathepsin G (Homo sapiens) (UniProt P08311); assay: Compound was evaluated for inhibitory activity towards Cathepsin G
# T2 sequence (whole entry): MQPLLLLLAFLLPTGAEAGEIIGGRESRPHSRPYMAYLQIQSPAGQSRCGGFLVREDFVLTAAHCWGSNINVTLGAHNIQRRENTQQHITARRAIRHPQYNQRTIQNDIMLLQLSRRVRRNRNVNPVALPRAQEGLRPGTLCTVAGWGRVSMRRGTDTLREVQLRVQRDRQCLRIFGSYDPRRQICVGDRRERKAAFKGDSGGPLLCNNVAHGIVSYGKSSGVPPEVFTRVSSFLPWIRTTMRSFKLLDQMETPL
# [3] = target: T3, Myeloblastin (Homo sapiens) (UniProt P24158); assay: Compound was evaluated for inhibitory activity against Proteinase 3
# T3 sequence (whole entry): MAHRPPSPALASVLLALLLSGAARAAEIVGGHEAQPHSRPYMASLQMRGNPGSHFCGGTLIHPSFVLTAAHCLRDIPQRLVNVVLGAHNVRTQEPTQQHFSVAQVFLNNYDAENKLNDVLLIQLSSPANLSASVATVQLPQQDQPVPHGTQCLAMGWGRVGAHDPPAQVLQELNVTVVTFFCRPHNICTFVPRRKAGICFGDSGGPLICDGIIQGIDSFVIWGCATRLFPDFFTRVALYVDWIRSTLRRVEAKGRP
SMILES,K inact/Ki [1],K inact/Ki [2],K inact/Ki [3]
CCCCOP(=O)(OCCCC)OCN1C(=O)C(CC(C)C)CS1(=O)=O (centres undefined),82000 M⁻¹ s⁻¹,,
CC(C)CC1CS(=O)(=O)N(COP(=O)(OCc2ccccc2)OCc2ccccc2)C1=O (centres undefined),95000 M⁻¹ s⁻¹,,
CC(C)CC1C(=O)N(COP(=O)(Oc2ccccc2)Oc2ccccc2)S(=O)(=O)N1CC1C=CC=C1 (centres undefined),4.2e+06 M⁻¹ s⁻¹,,
CC(C)CC1C(=O)N(COP(=O)(OCc2ccccc2)OCc2ccccc2)S(=O)(=O)N1Cc1ccccc1 (centres undefined),6e+06 M⁻¹ s⁻¹,120 M⁻¹ s⁻¹,89100 M⁻¹ s⁻¹

# The remaining lines, values ahead:
K inact/Ki [1],K inact/Ki [2],K inact/Ki [3],SMILES
430000 M⁻¹ s⁻¹,,,COP(=O)(OC)OCN1C(=O)C(CC(C)C)N(CC2C=CC=C2)S1(=O)=O (centres undefined)
2.7e+06 M⁻¹ s⁻¹,,,CCCCOP(=O)(OCCCC)OCN1C(=O)C(CC(C)C)N(C)S1(=O)=O (centres undefined)
2.5e+06 M⁻¹ s⁻¹,,,CCCCOP(=O)(OCCCC)OCN1C(=O)C(CC(C)C)N(CC2C=CC=C2)S1(=O)=O (centres undefined)
